# “Also recorded” adds a separate entry of the source.
# Tests used:
# [1] = tested on: patients with DSM-IV schizophrenia; test: Phase 2 double-blind, randomized, placebo-controlled proof of concept study: efficacy scales (PANSS, CGI-S, DAI-10, PSQI, BACS, MADRS, HAMA); assay type: in vivo, human
# Description: A study was conducted using the compound of formula II, to examine the efficacy on schizophrenia and treatment of symptoms of schizophrenia. The study was a multi-center, inpatient and ambulatory, phase 2, double-blind, randomized, placebo-controlled proof of concept study of the compound of formula II in patients with DSM-IV schizophrenia. The study used 21 centers across three different countries.
# (§1) The study was designed to test the therapeutic efficacy of the compound of formula II on all dimensions of schizophrenic disease (E.g., positive, negative, and general symptoms, cognition, sleep, mood and anxiety). The study also examined the safety of the administered doses of the compound of formula II (also referred to herein as CYR-101), including heart repolarization (i.e., QT interval), weight change, adverse events, prolactin, and extrapyramidal symptoms).
# The study was conducted for a time period of three months.
# The objectives of the study included the following: • 1. Evaluate the efficacy versus placebo of CYR-101 on global PANSS score and sub-scores after one month (28 days+/− 2 days) of treatment • 2. […] Evaluate the efficacy versus placebo of CYR-101 as assessed by the CGI-S after one and three months of treatment • 4. Evaluate subjective efficacy in patients of CYR-101 versus placebo as assessed by the Drug Attitude Inventory-10 (DAI-10) after one and three months of treatment • 5. Evaluate subjective sleep quality as assessed by Pittsburgh Sleep Quality Index (PSQI) after three month of treatment • 6. Explore the efficacy versus placebo of CYR-101 on cognitive function as measured by BACS (Brief Assessment of Cognition in Schizophrenia) scale after one and three months of treatment • 7. Evaluate the efficacy versus placebo of CYR-101 in depressive symptoms as measure by the Montgomery-Asberg Depression Rating Scale (MADRS) total score after one month of treatment • 8. Evaluate the efficacy versus placebo of CYR-101 in anxiety as measured by the Hamilton Anxiety Scale (HAMA) total score after one month of treatment • 9. Assess cardio-vascular safety (particularly ventricular repolarisation as assessed by QT/QTc interval measurements) of CYR-101 compared with placebo • 10. Assess the global safety and tolerability of CYR-101 compared with placebo • 11. Determine the pharmacokinetics of CYR-101 in schizophrenic patients
# (§2) CYR-101 8 mg oral sustained release (SR) tablet, oral administration of 1, 2, or 4 tablets (8, 16 or 32 mg of CYR-101) was administered twice daily in fed condition. During the dose adjustment period, CYR-101 was administered orally, twice a day in the morning and in the evening, at the daily dose of 16 mg for two days, then titrated up every two days to 32 mg and 64 mg respectively. During the fixed-dose period, the optimal adjusted dose evaluated for each patient or the maximum daily dose of 64 mg of CYR-101 was administered. In one aspect of the study, the dosage of compound was titrated up to 32 mg b.i.d.
# During the lead-in period, oral administration of 1 placebo SR tablet was conducted twice a day for 3 days. During the dose adjustment and fixed-dose periods, oral administration of 1, 2, or 4 placebo SR tablets was used twice daily as performed for the test product.
# The resulting data was analyzed one of three ways: 1.) Safety set; 2.) Full analysis set, with each patient having at least one PANSS evaluation after treatment initiation included in the efficacy analysis. The LOCF method is used; and 3.) Per protocol set, where for certain analyses, all patients having completed three months of treatment are included. ANCOVA followed by a contrast analysis at each time point were applied and in some cases, a non-parametric Wilcoxon test was used.
# 1. Primary: PANSS total score and sub-scores, after one month of treatment
# 2. […]
# [2] = tested on: patients with DSM-IV schizophrenia; test: Phase 2 clinical study: safety (extrapyramidal symptoms, adverse events, QT interval); assay type: in vivo, human
# Description: as §1, §2
# 4. Safety: 12-lead ECG, adverse event (AE) recording, vital signs, physical examination, weight and waist circumference, safety lab tests, evaluation of extra-pyramidal symptoms (measured by Simpson and Angus scale), and prolactin levels.
# 3. Safety: Descriptive statistics on the safety set for extent of exposure, adverse events recording, safety lab tests, 12-lead ECG parameters, vital signs, and physical examination, weight and waist circumference, extra-pyramidal symptoms, prolactin levels.
# schizophrenic patients = test: Polysomnographic (PSG) sleep recording in a sub-group of patients; assay type: in vivo, human
# Text: 3. Exploratory: In a sub-group of patients, polysomnographic sleep continuity and sleep architecture parameters.
# 2. Secondary efficacy variables: Same method for the PANSS total and sub-scores at three months of treatment, BACS, DAI-10, MADRS, HAMA, and PSQI on the Full Analysis Set (FAS). Last Observation Carried Forward (LOCF) procedure used for missing data imputation. Analysis of variance (ANOVA) for the Readiness for Discharge Questionnaire (RDQ) at 14 days. Wilcoxon rank sum test for CGI-S. Descriptive statistics and graphical presentation on changes from baseline on FAS. Efficacy analyses (ANCOVA) additionally performed on the Per Protocol Set. Supportive exploratory analysis on PANSS using longitudinal, likelihood-based, mixed-effect model on FAS without missing data imputation. On a subtest of patients, polysomnographic (PSG) recording parameters analyzed using descriptive statistics and ANCOVA on changes from baseline.
# Polysomnographic recordings took place in a sub-group of patients. Sleep was recorded from 11:00 pm to 7:00 am on D-1 after a habituation night (baseline condition) and on D14. Analyses regarding sleep continuity, stage distribution, and stage profile parameters were exploratory. The treatment differences on each of these sleep parameters were analyzed using D14 values with ANOVAs and ANCOVAs with country and treatment as main effects and baseline as covariate.
# Among the 33 patients who had performed a PSG recording at visit lead-in day-1, 19 received placebo and 14 received the study treatment. Among these, […] experienced technical problem and/or insomnia during baseline and/or treatment night and were therefore excluded from the analysis. Finally, 20 patients were included in the analysis set of ANOVA and 19 patients were included in the analysis set of ANCOVA, and according to the SAP, only ANCOVA results were taken into account and are further discussed in the next sections.
# sigma 2 receptor = sigma 2 receptor (Homo sapiens, UniProt Q5BJF2); details: cited from earlier work
# Chain of sigma 2 receptor (Q5BJF2 whole entry, species assumed): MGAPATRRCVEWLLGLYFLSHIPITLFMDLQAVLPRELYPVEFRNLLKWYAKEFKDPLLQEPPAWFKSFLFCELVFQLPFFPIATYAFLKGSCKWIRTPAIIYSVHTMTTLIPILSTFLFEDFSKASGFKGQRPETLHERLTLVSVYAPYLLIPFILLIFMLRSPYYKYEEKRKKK
# 5-HT2A = 5-HT2A (Homo sapiens, UniProt P28223); details: known: dual 5-HT2A/sigma 2; cited from earlier work
# Chain of 5-HT2A (P28223 whole entry, species assumed): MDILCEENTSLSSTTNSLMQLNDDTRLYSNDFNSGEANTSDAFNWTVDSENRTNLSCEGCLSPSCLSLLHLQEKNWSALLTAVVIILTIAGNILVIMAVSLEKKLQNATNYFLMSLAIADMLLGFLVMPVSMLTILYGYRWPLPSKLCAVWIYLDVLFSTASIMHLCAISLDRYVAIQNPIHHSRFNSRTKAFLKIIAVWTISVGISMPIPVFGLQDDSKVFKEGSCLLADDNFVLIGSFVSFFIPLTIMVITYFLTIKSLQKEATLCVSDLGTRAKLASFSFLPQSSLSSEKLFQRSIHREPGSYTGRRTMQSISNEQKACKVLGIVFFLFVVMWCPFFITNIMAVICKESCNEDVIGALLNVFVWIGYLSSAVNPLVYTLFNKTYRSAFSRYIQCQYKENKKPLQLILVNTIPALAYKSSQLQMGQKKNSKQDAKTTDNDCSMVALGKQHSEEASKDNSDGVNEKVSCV
# dopamine = details: known; cited from earlier work
# [3] = D14, ANCOVA contrast, not statistically significant
# [4] = D14, ANCOVA, no significant treatment effect
# [5] = D14, not statistically significant
smiles,measurement,setting,value
"O=C(CN1CCC(CN2Cc3ccccc3C2=O)CC1)c1ccc(F)cc1 [CYR-101, 2-[[1-[2-(4-Fluorophenyl)-2-oxoethyl]piperidin-4-yl]methyl]isoindolin-1-one]","PANSS general psychopathology sub-score, treatment difference vs placebo","[1]; D28, FAS",no treatment difference
same,"PANSS positive sub-score, treatment difference vs placebo","[1]; D28, FAS",no treatment difference
same,"PANSS total score, change from baseline, treatment difference vs placebo","[1]; D28, FAS",no treatment difference
same,PANSS negative sub-score decrease,"[1]; D28, FAS, p<0.01",−1.9
same,"PANSS general psychopathology sub-score, treatment difference vs placebo","[1]; D28, PPC",no treatment difference
same,"PANSS positive sub-score, treatment difference vs placebo","[1]; D28, PPC",no treatment difference
same,"PANSS total score, treatment difference vs placebo","[1]; D28, PPC",no treatment difference
same,PANSS negative sub-score decrease,"[1]; D28, PPC, p<0.0010",−4.7
same,"PANSS general psychopathology sub-score, treatment difference vs placebo","[1]; D84, FAS",no significant treatment difference
same,"PANSS positive sub-score, treatment difference vs placebo","[1]; D84, FAS",no significant treatment difference
same,"PANSS total score, change from baseline, treatment difference vs placebo","[1]; D84, FAS",no significant treatment difference
same,PANSS negative sub-score point estimate decrease,"[1]; D84, FAS, p<0.01",−2.3
same,PANSS total score vs placebo,"[1]; D84, PPC, obvious switch on D56",favorable trend of CYR-101 over placebo
same,PANSS negative sub-score improvement,"[1]; D84, PPC, p<0.001, treatment difference vs placebo p=0.0581",−5.8
same,PANSS positive sub-score vs placebo,"[1]; D84, PPC, switch between D56 and D70",favorable trend of CYR-101 over placebo
same,PANSS general psychopathology sub-score vs placebo,"[1]; D84, PPC, switch on D70",favorable trend of CYR-101 over placebo
same,Cognitive performances assessed by BACS vs placebo,[1]; FAS,"no differences between the placebo group and the CYR-101 group, except for the Token motor task"
same,"MADRS Total change score, difference vs placebo","[1]; FAS and PPC, D28 and D84, reduction in both groups",not statistically significant
same,"CGI-S score, difference between CYR-101 and placebo","[1]; FAS, D28 and D84",no significant difference
same,HAMA total score change from baseline,"[1]; FAS, D28 and D84, non statistically significant",slight HAMA total score reduction
same,HAMA total score reduction,"[1]; PPC, D28, p=0.2920",−1.0
same,"BACS Token motor task, list learning task, verbal fluency vs placebo","[1]; PPC, D84, descriptive data, not statistically significant",slight difference in favor of CYR-101 group; also recorded: slight difference in favour of CYR-101 group
same,HAMA total score reduction,"[1]; PPC, D84, p=0.0642",−2.9
same,CGI-S mean difference score,"[1]; PPC, from D56 until D84",non significant but an interesting switch in favor of CYR-101
same,"Improvement of negative symptoms, onset",[1]; course of treatment,observed immediately
same,"Improvement of positive symptoms, onset",[1]; course of treatment,did not improve until after the first four weeks of treatment
same,Duration of improvement in both positive and negative symptoms,[1]; in vivo,continued for more than twelve weeks
same,Effect on cognition in schizophrenic patients,[1]; in vivo,positive effect on cognition
same,"DAI-10 total score change from baseline, difference between groups","[1]; to D28 and D84, FAS and PPC",no statistically significant difference
same,Increase in the QT interval,"[2]; doses up to 32 mg b.i.d., stable over time, limits e.g. 10-15 milliseconds or less",did not cross clinically acceptable limits
same,"Emergence or worsening of extrapyramidal symptoms, CYR-101 vs placebo","[2]; human, in vivo",no significant difference
same,Number of SAE in the active treatment group,[2]; unlikely related to CYR-101 based on the patient history,one
same,Decrease of sleep efficiency index (SEI) compared to placebo,schizophrenic patients; [3],2.4%
same,Decrease of total sleep time (TST) compared to placebo,schizophrenic patients; [3],13.7 min
same,Increase of duration of wake after sleep onset (WASO) compared to placebo,schizophrenic patients; [3],26.6 min
same,Latency to persistent sleep,schizophrenic patients; [4],trend of improvement
same,Sleep onset latency,schizophrenic patients; [4],trend of improvement
same,REM sleep latency contrast,"schizophrenic patients; D14, non significant",appeared later
same,SWS latency contrast,"schizophrenic patients; D14, non significant",appeared sooner
same,Decrease of REM sleep in SPT2 and in SPT3,schizophrenic patients; [5],3.03%
same,Increase of REM sleep in the first third of SPT (REM_SPT1),schizophrenic patients; [5],1.4%
same,Slow Wave Sleep (SWS) compared to placebo,schizophrenic patients; [5],increased
same,Stage 1 (ST1) compared to placebo,schizophrenic patients; [5],decreased
same,Stage 2 (ST2 in min) compared to placebo,schizophrenic patients; [5],decreased
same,Total Time Awake (TTA) compared to placebo,schizophrenic patients; [5],increased
same,nonREM sleep (NREM) compared to placebo,schizophrenic patients; [5],increased
same,Decrease of SWS during the last third of SPT (SWS-SPT3) compared to placebo,"schizophrenic patients; D14, p<0.05",22.1%
same,Increase of SWS in the first third of SPT (SWS-SPT1) compared to placebo,"schizophrenic patients; D14, p<0.05",23.6%
same,REM sleep (REM) compared to placebo,"schizophrenic patients; D14, significant only for REM-TST (p<0.05)",decreased
same,Receptor binding selectivity,sigma 2 receptor,sigma 2-selective receptor binding
same,Mode of action at 5-HT2A,5-HT2A,antagonist
same,Dopamine binding properties,dopamine,devoid of dopamine binding properties
